# Laboratory results reported in ChEMBL document CHEMBL1201862, “PubChem BioAssay data set” (2004).
# Activity calls are given as the source filed them. Rule as the data show it, for most assays here: actives have a measured EC50 and inactives only a lower limit.
# How the values were obtained:
# [1] = molecular target: T1, RNA-binding protein pos-1 (Caenorhabditis elegans, UniProt G5EF15); assay: inhibitors of POS-1/mex-3 RNA binding, dose response, biochemical, fluorescence polarization (AID 1964);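 also: purified POS-1 fused to maltose binding protein made in E. coli; potency of compounds blocking POS-1 binding to fluorescent RNA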
# T1 sequence (G5EF15 whole entry): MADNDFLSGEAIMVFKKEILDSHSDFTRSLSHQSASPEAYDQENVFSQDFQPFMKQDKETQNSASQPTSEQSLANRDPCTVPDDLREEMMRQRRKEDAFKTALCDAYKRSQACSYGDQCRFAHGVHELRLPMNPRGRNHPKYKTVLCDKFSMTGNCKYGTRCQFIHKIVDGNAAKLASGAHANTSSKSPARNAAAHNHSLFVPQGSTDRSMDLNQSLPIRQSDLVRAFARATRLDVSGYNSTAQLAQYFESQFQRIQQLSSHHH
# [2] = molecular target: T2, Zinc finger protein mex-5 (Caenorhabditis elegans, UniProt Q9XUB2); assay: MEX-5/TCR-2 RNA interaction inhibitors, dose response, biochemical, C. elegans, fluorescence polarization (AID 1960)
# T2 sequence (Q9XUB2 whole entry): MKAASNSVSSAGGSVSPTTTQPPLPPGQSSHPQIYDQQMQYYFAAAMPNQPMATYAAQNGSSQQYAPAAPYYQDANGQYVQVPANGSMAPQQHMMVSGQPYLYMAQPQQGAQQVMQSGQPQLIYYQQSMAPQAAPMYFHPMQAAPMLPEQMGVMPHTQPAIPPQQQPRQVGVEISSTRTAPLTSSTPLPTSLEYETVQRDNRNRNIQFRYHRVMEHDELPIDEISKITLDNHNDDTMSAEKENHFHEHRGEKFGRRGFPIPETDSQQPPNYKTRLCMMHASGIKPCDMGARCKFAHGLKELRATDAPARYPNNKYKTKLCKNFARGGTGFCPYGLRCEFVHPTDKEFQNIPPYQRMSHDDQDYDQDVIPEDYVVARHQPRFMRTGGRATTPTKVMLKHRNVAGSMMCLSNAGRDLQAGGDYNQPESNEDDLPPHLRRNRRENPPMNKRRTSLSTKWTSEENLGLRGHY
# [3] = Luminescence Cell-Based Dose Confirmation HTS to Identify Activators of 5'UTR Stem-Loop Driven Alpha-Synuclein mRNA Translation in H4 Neuroglioblastoma Cells. [Related pubchem assays: 1829 (Project Summary), 1814 (Primary HTS)]; format: functional
# [4] = Luminescence Cell-Based Dose Response HTS to Identify Activators of Luciferase Translation or Activity in H4 […] Cells. [Related pubchem assays: 1829 (Project Summary), 1814 (Primary HTS)]; format: functional
# H4 = assay: Luminescence Cell-Based Dose Response HTS to Identify Activators of 5'UTR Stem-Loop Driven Prion Protein mRNA Translation in H4 Neuroglioblastoma Cells. [Related pubchem assays: 1829 (Project Summary), 1814 (Primary HTS)]; format: functional; conditions: Homo sapiens
# [5] = molecular target: T3, Heat shock factor protein 1 (Mus musculus, UniProt P38532); assay: HSF1 potentiators in luciferase reporter cells, confirmation, cell-based, NIH3T3, luminescence, dose retest (AID 435004); format: functional;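 also: stress induced by proteasome inhibitor MG132 added 30 min after compound; luciferase reporter driven by HSF1 response element in NIH3T3 cells; actives raise luminescence as potentiators of the MG132 stress response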
# T3 sequence (P38532 whole entry): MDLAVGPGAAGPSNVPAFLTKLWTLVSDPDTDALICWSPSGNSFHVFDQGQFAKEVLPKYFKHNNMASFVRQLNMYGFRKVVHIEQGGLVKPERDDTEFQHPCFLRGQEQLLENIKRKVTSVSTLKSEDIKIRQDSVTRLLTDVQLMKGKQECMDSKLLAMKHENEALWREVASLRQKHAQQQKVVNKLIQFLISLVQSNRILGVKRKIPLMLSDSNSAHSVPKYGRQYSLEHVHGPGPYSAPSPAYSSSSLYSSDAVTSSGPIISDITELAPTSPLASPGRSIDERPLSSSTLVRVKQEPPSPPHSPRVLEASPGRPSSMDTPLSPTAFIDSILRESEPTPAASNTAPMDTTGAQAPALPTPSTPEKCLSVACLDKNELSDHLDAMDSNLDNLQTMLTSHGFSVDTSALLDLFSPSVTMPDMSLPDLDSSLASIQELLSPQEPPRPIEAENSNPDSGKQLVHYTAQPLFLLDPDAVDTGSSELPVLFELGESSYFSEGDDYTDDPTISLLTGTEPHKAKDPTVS
# [6] = inhibitors of firefly luciferase expression or activity, dose response, H4 neuroglioma cells, luminescence (AID 1990); format: functional, cell-based
# [7] = inhibitors of SNCA 5'UTR-driven reporter translation, confirmation, H4 neuroglioma cells, luminescence (AID 1988); format: functional, cell-based
# [8] = Luminescence Cell-Based Dose Response HTS to Identify Inhibitors of 5'UTR Stem-Loop Driven Prion Protein mRNA Translation in H4 Neuroglioblastoma Cells. [Related pubchem assays: 1827 (Project Summary), 1813 (Primary HTS)]; format: functional
# [9] = growth suppression of PTEN-null colon cells, dose response, cell-based, HCT116 PTEN knockout (AID 1047); format: functional;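 also: HCT116 colon tumor cells with PTEN knocked out; cells exposed to compound for 60 hours before readout; potency for loss of cell viability measured by luminescence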
# [10] = growth suppression of beta-catenin-knockout colon cells, dose response, cell-based, HCT116, human colon tumor (AID 1045); format: functional;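 also: HCT116 colon tumor cells with beta catenin knocked out; cells exposed to compound for 60 hours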
# INS1 = assay: beta cell apoptosis inhibitors, cytokine rescue, dose response, luminescence, retest (AID 449756); format: functional, cell-based; conditions: Rattus norvegicus;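 also: cell death triggered by IL-1 beta plus TNF-alpha plus IFN-gamma mixture; protective hits raise ATP signal compared with cytokine alone wells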
# [11] = molecular target: T4, Replicative DNA helicase DnaB (Mycobacterium tuberculosis, UniProt P9WMR3); assay: DnaB intein splicing inhibitors, dose response, biochemical, cell-free fluorescence (AID 449749); format: functional
# T4 sequence (P9WMR3 whole entry): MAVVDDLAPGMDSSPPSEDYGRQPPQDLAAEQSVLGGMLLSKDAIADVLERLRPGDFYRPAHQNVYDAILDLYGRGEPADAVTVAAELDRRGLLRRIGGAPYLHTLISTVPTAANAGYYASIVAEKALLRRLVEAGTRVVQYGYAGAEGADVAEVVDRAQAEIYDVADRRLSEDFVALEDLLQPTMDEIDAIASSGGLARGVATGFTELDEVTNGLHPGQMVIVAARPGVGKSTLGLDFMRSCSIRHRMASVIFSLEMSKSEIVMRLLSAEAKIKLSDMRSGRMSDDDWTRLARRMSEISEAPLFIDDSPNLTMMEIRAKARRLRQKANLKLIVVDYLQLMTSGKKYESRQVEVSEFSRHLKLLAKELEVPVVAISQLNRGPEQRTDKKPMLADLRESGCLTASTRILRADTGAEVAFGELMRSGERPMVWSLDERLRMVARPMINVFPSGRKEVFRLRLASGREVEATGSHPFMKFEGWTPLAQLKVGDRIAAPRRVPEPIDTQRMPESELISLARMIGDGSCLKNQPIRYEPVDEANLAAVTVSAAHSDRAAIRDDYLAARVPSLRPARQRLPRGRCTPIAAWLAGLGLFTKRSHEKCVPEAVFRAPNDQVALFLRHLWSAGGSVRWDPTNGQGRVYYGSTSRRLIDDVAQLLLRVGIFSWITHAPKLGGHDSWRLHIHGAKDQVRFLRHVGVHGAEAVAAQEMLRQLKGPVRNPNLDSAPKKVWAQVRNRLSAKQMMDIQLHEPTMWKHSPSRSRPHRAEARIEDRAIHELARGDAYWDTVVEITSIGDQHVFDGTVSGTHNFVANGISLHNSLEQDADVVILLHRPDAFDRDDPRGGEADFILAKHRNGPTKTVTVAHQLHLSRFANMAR
# Protein RecA = molecular target: T5, Protein RecA (Mycobacterium tuberculosis, UniProt P9WHJ3); assay: Fluorescence Cell-Free Homogeneous Dose Retest to Identify Inhibitors of RecA-Intein Splicing Activity. [Related pubchem assays (depositor defined):AID2097, AID2223, AID489010, AID492950]; format: functional
# T5 sequence (P9WHJ3 whole entry): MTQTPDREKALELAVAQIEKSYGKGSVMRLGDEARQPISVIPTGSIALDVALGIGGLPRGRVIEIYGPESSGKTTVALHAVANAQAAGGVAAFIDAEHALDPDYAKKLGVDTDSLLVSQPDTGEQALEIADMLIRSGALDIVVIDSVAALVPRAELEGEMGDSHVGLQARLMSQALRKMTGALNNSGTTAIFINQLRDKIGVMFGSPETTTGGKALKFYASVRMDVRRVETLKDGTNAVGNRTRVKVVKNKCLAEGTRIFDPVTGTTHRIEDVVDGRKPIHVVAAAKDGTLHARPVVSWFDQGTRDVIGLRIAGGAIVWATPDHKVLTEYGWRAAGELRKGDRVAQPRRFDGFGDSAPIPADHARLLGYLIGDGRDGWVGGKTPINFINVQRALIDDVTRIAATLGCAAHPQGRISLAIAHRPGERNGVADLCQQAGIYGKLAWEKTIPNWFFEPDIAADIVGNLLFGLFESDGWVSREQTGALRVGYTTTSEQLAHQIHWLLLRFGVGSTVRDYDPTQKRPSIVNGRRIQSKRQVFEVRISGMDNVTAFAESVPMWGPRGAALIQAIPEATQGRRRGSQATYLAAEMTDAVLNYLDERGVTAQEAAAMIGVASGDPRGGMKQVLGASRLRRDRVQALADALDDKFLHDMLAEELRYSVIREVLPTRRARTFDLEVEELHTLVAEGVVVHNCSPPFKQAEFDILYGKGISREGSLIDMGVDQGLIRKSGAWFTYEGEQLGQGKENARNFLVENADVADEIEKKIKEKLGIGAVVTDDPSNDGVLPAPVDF
smiles,measurement,setting,value
C/C(NCc1ccc2c(c1)OCO2)=C1/C(=O)NC(=O)N(c2ccccc2)C1=O,EC50,[1],> 300 µM (not active)
same,EC50,[2],> 300 µM (not active)
COc1ccc(/C=C2/N=C(c3cccs3)OC2=O)cc1OC(C)C,EC50,[1],> 300 µM (not active)
same,EC50,[2],41.1 µM (active)
COc1ccc(C(=O)N=C(N)Nc2nc3ccccc3o2)cc1,EC50,[3],> 120 µM (not active)
same,EC50,[4],24.2 µM (active)
same,EC50,H4,29.5 µM (active)
O=C(c1cccnc1S)N1CCN(S(=O)(=O)c2ccc(Br)cc2Cl)CC1,EC50,[5],> 260 µM (inactive)
Cc1cccn2c(=O)c3cc(C(=O)NCCN4CCOCC4)c(=N)n(Cc4cccnc4)c3nc12,EC50,[6],12.6 µM (active)
same,EC50,[1],> 300 µM (not active)
same,EC50,[2],87.2 µM (active)
same,EC50,[7],9.91 µM (active)
CC(C)CCn1c(N2CCN(c3cccc(Cl)c3)CC2)nc2c1c(=O)[nH]c(=O)n2C,EC50,[6],18.9 µM (active)
same,EC50,[8],> 60 µM (not active)
same,EC50,[7],> 120 µM (not active)
same,EC50,[9],26.1 µM (active)
same,EC50,[10],33.5 µM (active)
Brc1ccc2oc3c(N4CCOCC4)ncnc3c2c1,EC50,[3],18.5 µM (active)
same,EC50,[4],4.18 µM (active)
same,EC50,H4,14.7 µM (active)
COc1ccc(NC(S)=Nc2ccc3nccnc3c2)cc1,EC50,[3],> 120 µM (not active)
same,EC50,[4],7.7 µM (active)
same,EC50,H4,8.17 µM (active)
CCOC(=O)c1sc(NC(=O)c2c(C)nn(Cc3ccccc3)c2C)cc1C,EC50,[9],30.4 µM (active)
same,EC50,[10],27.7 µM (active)
same,AC50,INS1,37.2 µM (active)
CCN1C(=O)c2cccc3c(S(=O)(=O)Nc4ncccc4C)ccc1c23,EC50,[5],> 260 µM (inactive)
COc1cc(CNCC(O)c2ccccc2)ccc1OCc1ccc(Cl)nc1 (stereo not drawn),EC50,[5],> 260 µM (inactive)
Cc1cnn(-c2cc(Oc3ccccc3)ncn2)c1,EC50,[3],1.11 µM (active)
same,EC50,[4],97.4 µM (active)
same,EC50,H4,11 µM (active)
COc1ccccc1NC(=O)CSc1nc2c(sc3ccccc32)c(=O)n1CCN(C)C,AC50,[11],58.7 µM (active)
same,EC50,Protein RecA,12.9 µM (active)
Cc1ccn2c(=O)nc(SCC(=O)Nc3cc(C)on3)nc2c1,EC50,[1],> 300 µM (not active)
same,EC50,[2],> 300 µM (not active)
COC(=O)CCC(=O)OC1(C)C(=O)C2=COC(c3ccc(OC)cc3)=CC2=C(Br)C1=O (stereo not drawn),EC50,[1],91.5 µM (active)
same,EC50,[2],33.1 µM (active)
CCOC(=O)c1c(NC(=O)COC(=O)c2ncc(Cl)c(Cl)c2Cl)sc(C(=O)N(C)C)c1C,AC50,[11],14.1 µM (active)
same,EC50,Protein RecA,45.5 µM (active)
CCOCCCN=C(S)Nc1ccc2nc(N3CCOCC3)cc(C)c2c1,EC50,[5],> 260 µM (inactive)
CS(=O)(=O)NNC(=O)Cn1nnc(-c2ccc(OCc3ccccc3Cl)cc2)n1,EC50,[3],18.2 µM (active)
same,EC50,[4],25 µM (active)
same,EC50,H4,> 120 µM (not active)
CC1CCN(c2ccc(C=O)o2)CC1,EC50,[5],> 260 µM (inactive)
NS(=O)(=O)c1ccc(NC(=O)COC(=O)c2cn(-c3ccccc3)nc2-c2ccc(F)cc2)cc1,EC50,[1],> 300 µM (not active)
same,EC50,[2],> 300 µM (not active)
COc1ccc(C2C(C#N)=C(N)OC3=C2C(=O)CCC3)cc1Cn1nc(C)c([N+](=O)[O-])c1C (stereo not drawn),EC50,[1],> 300 µM (not active)
same,EC50,[2],> 300 µM (not active)
Cc1cc(C)cc(NC(=O)CN2C(=O)NC(C)(c3ccccc3)C2=O)c1 (stereo not drawn),EC50,[5],> 260 µM (inactive)
Cn1c(SCc2cccc(C(F)(F)F)c2)nnc1-c1ccco1,EC50,[5],> 260 µM (inactive)
COC(=O)c1ccc(-n2cnc3ccccc32)nc1,EC50,[3],14.1 µM (active)
same,EC50,[4],16.1 µM (active)
same,EC50,H4,> 120 µM (not active)
Cc1cccc(CC(C)NC(=O)c2oc3c(F)cccc3c2C)n1 (stereo not drawn),EC50,[5],> 260 µM (inactive)
C(=N\Nc1nc(-c2ccccc2)cs1)/c1ccco1,EC50,[3],5.18 µM (active)
same,EC50,[4],7.64 µM (active)
same,EC50,H4,33.2 µM (active)
CCCCc1noc2c1/C(=N\O)CC(c1ccccc1)C2 (stereo not drawn),EC50,[3],> 120 µM (not active)
same,EC50,[4],6.02 µM (active)
same,EC50,H4,27.9 µM (active)
COC(=O)c1ccc(CO/N=C2\CCCc3nonc32)cc1,EC50,[3],92.4 µM (active)
same,EC50,[4],17.8 µM (active)
same,EC50,H4,12.9 µM (active)
